Legend:
green foxtail [1] = experiment: Test Example 5: herbicidal effect by foliage application, plastic box (Table 20, symbol G); format: in vivo, green foxtail (Setaria viridis)
Procedure, shortened: (§1)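 Foliar spray test: emulsion formulation diluted in water to a set application rate, sprayed onto 14-day-old plants raised in diluvial soil at 25° C to 30° C under glass. Both herbicidal effect and crop effect rated visually three weeks later.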

oval-leafed pondweed = experiment: Test Example 1: herbicidal activity, application before weed generation under submerged conditions (Table 16, symbol C); format: in vivo, oval-leafed pondweed (Monochoria vaginalis); details: 320 g/ha applied herbicide
Procedure, shortened: (§2)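 Alluvial soil was flooded to 4 cm depth, weed seeds were sown mixed and 2.5-leaf rice seedlings were transplanted. On sowing day, the compound's emulsion, diluted in water to a set dose, was applied to the water surface. Plants grew at 25–30 °C and were scored 0–5 after three weeks.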

redroot pigweed [2] = experiment: Test Example 5: herbicidal effect by foliage application, plastic box (Table 20, symbol N); format: in vivo, redroot pigweed (Amaranthus retroflexus)
Procedure, shortened: as §1

blackgrass [3] = experiment: Test Example 5: herbicidal effect by foliage application, plastic box (Table 20, symbol J); format: in vivo, blackgrass (Alopecurus myosuroides)
Procedure, shortened: as §1

southern crabgrass [4] = experiment: Test Example 5: herbicidal effect by foliage application, plastic box (Table 20, symbol F); format: in vivo, southern crabgrass (Digitaria ciliaris)
Procedure, shortened: as §1

chickweed [5] = experiment: Test Example 5: herbicidal effect by foliage application, plastic box (Table 20, symbol P); format: in vivo, common chickweed (Stellaria media)
Procedure, shortened: as §1

lambsquarters [6] = experiment: Test Example 5: herbicidal effect by foliage application, plastic box (Table 20, symbol O); format: in vivo, lambsquarters (Chenopodium album)
Procedure, shortened: as §1

barnyard grass [7] = experiment: Test Example 5: herbicidal effect by foliage application, plastic box (Table 20, symbol H); format: in vivo, barnyard grass (Echinochloa crus-galli)
Procedure, shortened: as §1

windgrass [8] = experiment: Test Example 5: herbicidal effect by foliage application, plastic box (Table 20, symbol L); format: in vivo, windgrass (Apera spica-venti)
Procedure, shortened: as §1

Italian ryegrass [9] = experiment: Test Example 5: herbicidal effect by foliage application, plastic box (Table 20, symbol K); format: in vivo, Italian ryegrass (Lolium multiflorum)
Procedure, shortened: as §1

Japanese bulrush = experiment: Test Example 1: herbicidal activity, application before weed generation under submerged conditions (Table 16, symbol B); format: in vivo, Japanese bulrush (Schoenoplectus juncoides); details: 320 g/ha applied herbicide
Procedure, shortened: as §2

late watergrass = experiment: Test Example 1: herbicidal activity, application before weed generation under submerged conditions (Table 16, symbol A); format: in vivo, late watergrass (Echinochloa oryzicola); details: 320 g/ha applied herbicide
Procedure, shortened: as §2

velvetleaf [10] = experiment: Test Example 5: herbicidal effect by foliage application, plastic box (Table 20, symbol M); format: in vivo, velvetleaf (Abutilon theophrasti)
Procedure, shortened: as §1

persian speedwell [11] = experiment: Test Example 5: herbicidal effect by foliage application, plastic box (Table 20, symbol R); format: in vivo, Persian speedwell (Veronica persica)
Procedure, shortened: as §1

false cleavers = experiment: Test Example 5: herbicidal effect by foliage application, plastic box (Table 20, symbol Q); format: in vivo, false cleavers (Galium spurium)
Procedure, shortened: as §1

wild oat [12] = experiment: Test Example 5: herbicidal effect by foliage application, plastic box (Table 20, symbol I); format: in vivo, wild oat (Avena fatua)
Procedure, shortened: as §1

barnyard grass [13] = experiment: Test Example 3: herbicidal effect by foliage application, Wagner pot (Table 18, symbol H); format: in vivo, barnyard grass (Echinochloa crus-galli); details: 320 g/ha
Procedure, shortened: (§3)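 Plants were sown in alluvial soil held under 0.1–0.5 cm standing water and grown 14 days in a greenhouse at 25–30 °C. An emulsifiable formulation, water-diluted to the set dose, was then sprayed onto the foliage, and effects were scored three weeks later using previously defined criteria.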

southern crabgrass [14] = experiment: Test Example 4: herbicidal effect by soil treatment (Table 19, symbol F); format: in vivo, southern crabgrass (Digitaria ciliaris); details: amount of applied herbicide 320 g/ha
Procedure, shortened: (§4)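 Step 1: sow seeds in sterilized diluvial soil, cover ~1.5 cm. Step 2: spray diluted emulsion onto soil surface at predetermined rate. Step 3: greenhouse, 25–30° C, three weeks. Step 4: grade effect on each plant by earlier criteria.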

persian speedwell [15] = experiment: Test Example 4: herbicidal effect by soil treatment (Table 19, symbol R); format: in vivo, Persian speedwell (Veronica persica); details: amount of applied herbicide 320 g/ha
Procedure, shortened: as §4

rice flat sedge = experiment: Test Example 3: herbicidal effect by foliage application, Wagner pot (Table 18, symbol E); format: in vivo, rice flat sedge (Cyperus iria); details: 320 g/ha
Procedure, shortened: as §3

redroot pigweed [16] = experiment: Test Example 4: herbicidal effect by soil treatment (Table 19, symbol N); format: in vivo, redroot pigweed (Amaranthus retroflexus); details: amount of applied herbicide 320 g/ha
Procedure, shortened: as §4

Italian ryegrass [17] = experiment: Test Example 4: herbicidal effect by soil treatment (Table 19, symbol K); format: in vivo, Italian ryegrass (Lolium multiflorum); details: amount of applied herbicide 320 g/ha
Procedure, shortened: as §4

wild oat [18] = experiment: Test Example 4: herbicidal effect by soil treatment (Table 19, symbol I); format: in vivo, wild oat (Avena fatua); details: amount of applied herbicide 320 g/ha
Procedure, shortened: as §4

velvetleaf [19] = experiment: Test Example 4: herbicidal effect by soil treatment (Table 19, symbol M); format: in vivo, velvetleaf (Abutilon theophrasti); details: amount of applied herbicide 320 g/ha
Procedure, shortened: as §4

green foxtail [20] = experiment: Test Example 4: herbicidal effect by soil treatment (Table 19, symbol G); format: in vivo, green foxtail (Setaria viridis); details: amount of applied herbicide 320 g/ha
Procedure, shortened: as §4

chickweed [21] = experiment: Test Example 4: herbicidal effect by soil treatment (Table 19, symbol P); format: in vivo, common chickweed (Stellaria media); details: amount of applied herbicide 320 g/ha
Procedure, shortened: as §4

barnyard grass [22] = experiment: Test Example 4: herbicidal effect by soil treatment (Table 19, symbol H); format: in vivo, barnyard grass (Echinochloa crus-galli); details: amount of applied herbicide 320 g/ha
Procedure, shortened: as §4

blackgrass [23] = experiment: Test Example 4: herbicidal effect by soil treatment (Table 19, symbol J); format: in vivo, blackgrass (Alopecurus myosuroides); details: amount of applied herbicide 320 g/ha
Procedure, shortened: as §4

windgrass [24] = experiment: Test Example 4: herbicidal effect by soil treatment (Table 19, symbol L); format: in vivo, windgrass (Apera spica-venti); details: amount of applied herbicide 320 g/ha
Procedure, shortened: as §4

Chinese sprangletop = experiment: Test Example 3: herbicidal effect by foliage application, Wagner pot (Table 18, symbol D); format: in vivo, chinese sprangletop (Leptochloa chinensis); details: 320 g/ha
Procedure, shortened: as §3

lambsquarters [25] = experiment: Test Example 4: herbicidal effect by soil treatment (Table 19, symbol O); format: in vivo, lambsquarters (Chenopodium album); details: amount of applied herbicide 320 g/ha
Procedure, shortened: as §4

[26] = foliage application, 320 g/ha, three weeks after application
[27] = amount of applied herbicide 320 g/ha, foliage application after 14-day growth, evaluated three weeks after application

CCCCCCOc1ccc(-c2sc3ccccc3c2-c2c(OC(=O)CCC)c(C)nn(C)c2=O)cc1 [1-029]
herbicidal effect grade, G: green foxtail (green foxtail [1]; [26]): 0 (Herbicidal rate of 5% or less (almost no effect)) | Herbicidal effect on C: oval-leafed pondweed (grade 0-5) (oval-leafed pondweed): 2 (Herbicidal rate of 20% or more and less than 40%) | herbicidal effect grade, N: redroot pigweed (redroot pigweed [2]; [26]): 4 (Herbicidal rate of 70% or more and less than 90%) | herbicidal effect grade, J: blackgrass (blackgrass [3]; [26]): 0 (Herbicidal rate of 5% or less (almost no effect)) | herbicidal effect grade, F: southern crabgrass (southern crabgrass [4]; [26]): 0 (Herbicidal rate of 5% or less (almost no effect)) | herbicidal effect grade, P: chickweed (chickweed [5]; [26]): 5 (Herbicidal rate of 90% or more (almost completely withered)) | herbicidal effect grade, O: lambsquarters (lambsquarters [6]; [26]): 2 (Herbicidal rate of 20% or more and less than 40%) | herbicidal effect grade, H: barnyard grass (barnyard grass [7]; [26]): 0 (Herbicidal rate of 5% or less (almost no effect)) | herbicidal effect grade, L: windgrass (windgrass [8]; [26]): 0 (Herbicidal rate of 5% or less (almost no effect)) | herbicidal effect grade, K: Italian ryegrass (Italian ryegrass [9]; [26]): 0 (Herbicidal rate of 5% or less (almost no effect)) | Herbicidal effect on B: Japanese bulrush (grade 0-5) (Japanese bulrush): 1 (Herbicidal rate of 5% or more and less than 20%) | Herbicidal effect on A: late watergrass (grade 0-5) (late watergrass): 0 (Herbicidal rate of 5% or less (almost no effect)) | herbicidal effect grade, M: velvetleaf (velvetleaf [10]; [26]): 2 (Herbicidal rate of 20% or more and less than 40%) | herbicidal effect grade, R: persian speedwell (persian speedwell [11]; [26]): 0 (Herbicidal rate of 5% or less (almost no effect)) | herbicidal effect grade, Q: false cleavers (false cleavers; [26]): 1 (Herbicidal rate of 5% or more and less than 20%) | herbicidal effect grade, I: wild oat (wild oat [12]; [26]): 0 (Herbicidal rate of 5% or less (almost no effect))

CCCC(=O)Oc1c(C)nn(C)c(=O)c1-c1c(-c2ccc(F)cc2)sc2cc(F)c(F)cc12 [5-002]
herbicidal effect on barnyard grass (H) (barnyard grass [13]): 4 (Herbicidal rate of 70% or more and less than 90%) | Herbicidal effect by foliage application, G: green foxtail (green foxtail [1]; [27]): 5 (Herbicidal rate of 90% or more (almost completely withered)) | Herbicidal effect by foliage application, N: redroot pigweed (redroot pigweed [2]; [27]): 5 (Herbicidal rate of 90% or more (almost completely withered)) | Herbicidal effect by foliage application, J: blackgrass (blackgrass [3]; [27]): 4 (Herbicidal rate of 70% or more and less than 90%) | F: southern crabgrass, herbicidal effect grade (southern crabgrass [14]): 0 (Herbicidal rate of 5% or less (almost no effect)) | R: persian speedwell, herbicidal effect grade (persian speedwell [15]): 5 (Herbicidal rate of 90% or more (almost completely withered)) | herbicidal effect on rice flat sedge (E) (rice flat sedge): 0 (Herbicidal rate of 5% or less (almost no effect)) | N: redroot pigweed, herbicidal effect grade (redroot pigweed [16]): 5 (Herbicidal rate of 90% or more (almost completely withered)) | K: Italian ryegrass, herbicidal effect grade (Italian ryegrass [17]): 5 (Herbicidal rate of 90% or more (almost completely withered)) | Herbicidal effect by foliage application, F: southern crabgrass (southern crabgrass [4]; [27]): 5 (Herbicidal rate of 90% or more (almost completely withered)) | I: wild oat, herbicidal effect grade (wild oat [18]): 3 (Herbicidal rate of 40% or more and less than 70%) | Herbicidal effect by foliage application, P: chickweed (chickweed [5]; [27]): 5 (Herbicidal rate of 90% or more (almost completely withered)) | M: velvetleaf, herbicidal effect grade (velvetleaf [19]): 3 (Herbicidal rate of 40% or more and less than 70%) | Herbicidal effect by foliage application, O: lambsquarters (lambsquarters [6]; [27]): 5 (Herbicidal rate of 90% or more (almost completely withered)) | G: green foxtail, herbicidal effect grade (green foxtail [20]): 4 (Herbicidal rate of 70% or more and less than 90%) | P: chickweed, herbicidal effect grade (chickweed [21]): 4 (Herbicidal rate of 70% or more and less than 90%) | Herbicidal effect by foliage application, H: barnyard grass (barnyard grass [7]; [27]): 4 (Herbicidal rate of 70% or more and less than 90%) | Herbicidal effect by foliage application, L: windgrass (windgrass [8]; [27]): 5 (Herbicidal rate of 90% or more (almost completely withered)) | Herbicidal effect by foliage application, K: Italian ryegrass (Italian ryegrass [9]; [27]): 5 (Herbicidal rate of 90% or more (almost completely withered)) | H: barnyard grass, herbicidal effect grade (barnyard grass [22]): 3 (Herbicidal rate of 40% or more and less than 70%) | J: blackgrass, herbicidal effect grade (blackgrass [23]): 2 (Herbicidal rate of 20% or more and less than 40%) | L: windgrass, herbicidal effect grade (windgrass [24]): 5 (Herbicidal rate of 90% or more (almost completely withered)) | Herbicidal effect by foliage application, M: velvetleaf (velvetleaf [10]; [27]): 5 (Herbicidal rate of 90% or more (almost completely withered)) | Herbicidal effect by foliage application, R: persian speedwell (persian speedwell [11]; [27]): 5 (Herbicidal rate of 90% or more (almost completely withered)) | herbicidal effect on Chinese sprangletop (D) (Chinese sprangletop): 3 (Herbicidal rate of 40% or more and less than 70%) | O: lambsquarters, herbicidal effect grade (lambsquarters [25]): 5 (Herbicidal rate of 90% or more (almost completely withered)) | Herbicidal effect by foliage application, Q: false cleavers (false cleavers; [27]): 5 (Herbicidal rate of 90% or more (almost completely withered)) | Herbicidal effect by foliage application, I: wild oat (wild oat [12]; [27]): 4 (Herbicidal rate of 70% or more and less than 90%)

— patent US20230085307A1, “PYRIDAZINONE COMPOUND AND HERBICIDE” (NISSAN CHEMICAL CORPORATION, priority 2019, published 2023)
